Test results as given in the supplement of paper PMC11451515.

Test system: NOMO1
Assay: cell viability relative to DMSO control; higher = less cytotoxic
Settings: 48 h
Outline: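 NOMO1, SEM and P12-Ichikawa leukemia cells spent at least four passages adapting to each medium before use. They were seeded at 500 cells/well (NOMO1, SEM) or 1000 cells/well (P12-Ichikawa) in 5 μl in 1536-well plates and pin-dosed with library compounds in DMSO at 11 threefold steps from 47 μM down to 0.79 nM. After 48 h at 37°C, CellTiter-Glo One luminescence was read. Viability is reported as a percentage of the DMSO wells on each plate, with cell-free wells as background.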

[1] = HPLM + 10% dialyzed FBS, 0.000781 µM
[2] = HPLM + 10% dialyzed FBS, 0.00234 µM
[3] = HPLM + 10% dialyzed FBS, 0.00702 µM
[4] = HPLM + 10% dialyzed FBS, 0.0211 µM
[5] = HPLM + 10% dialyzed FBS, 0.0632 µM
[6] = HPLM + 10% dialyzed FBS, 0.19 µM
[7] = HPLM + 10% dialyzed FBS, 0.569 µM
[8] = HPLM + 10% dialyzed FBS, 1.71 µM
[9] = HPLM + 10% dialyzed FBS, 5.12 µM
[10] = HPLM + 10% dialyzed FBS, 15.4 µM
[11] = HPLM + 10% dialyzed FBS, 46.1 µM
[12] = RPMI 5 mM glucose + 10% FBS, 0.000781 µM
[13] = RPMI 5 mM glucose + 10% FBS, 0.00234 µM
[14] = RPMI 5 mM glucose + 10% FBS, 0.00702 µM
[15] = RPMI 5 mM glucose + 10% FBS, 0.0211 µM
[16] = RPMI 5 mM glucose + 10% FBS, 0.0632 µM
[17] = RPMI 5 mM glucose + 10% FBS, 0.19 µM
[18] = RPMI 5 mM glucose + 10% FBS, 0.569 µM
[19] = RPMI 5 mM glucose + 10% FBS, 1.71 µM
[20] = RPMI 5 mM glucose + 10% FBS, 5.12 µM
[21] = RPMI 5 mM glucose + 10% FBS, 15.4 µM
[22] = RPMI 5 mM glucose + 10% FBS, 46.1 µM
[23] = RPMI 5 mM glucose + 10% dialyzed FBS, 0.000781 µM
[24] = RPMI 5 mM glucose + 10% dialyzed FBS, 0.00234 µM
[25] = RPMI 5 mM glucose + 10% dialyzed FBS, 0.00702 µM
[26] = RPMI 5 mM glucose + 10% dialyzed FBS, 0.0211 µM
[27] = RPMI 5 mM glucose + 10% dialyzed FBS, 0.0632 µM
[28] = RPMI 5 mM glucose + 10% dialyzed FBS, 0.19 µM
[29] = RPMI 5 mM glucose + 10% dialyzed FBS, 0.569 µM
[30] = RPMI 5 mM glucose + 10% dialyzed FBS, 1.71 µM
[31] = RPMI 5 mM glucose + 10% dialyzed FBS, 5.12 µM
[32] = RPMI 5 mM glucose + 10% dialyzed FBS, 15.4 µM
[33] = RPMI 5 mM glucose + 10% dialyzed FBS, 46.1 µM

Row | SMILES | cell viability [1] [%] | cell viability [2] [%] | cell viability [3] [%] | cell viability [4] [%] | cell viability [5] [%] | cell viability [6] [%] | cell viability [7] [%] | cell viability [8] [%] | cell viability [9] [%] | cell viability [10] [%] | cell viability [11] [%] | cell viability [12] [%] | cell viability [13] [%] | cell viability [14] [%] | cell viability [15] [%] | cell viability [16] [%] | cell viability [17] [%] | cell viability [18] [%] | cell viability [19] [%] | cell viability [20] [%] | cell viability [21] [%] | cell viability [22] [%] | cell viability [23] [%] | cell viability [24] [%] | cell viability [25] [%] | cell viability [26] [%] | cell viability [27] [%] | cell viability [28] [%] | cell viability [29] [%] | cell viability [30] [%] | cell viability [31] [%] | cell viability [32] [%] | cell viability [33] [%]
1 | CC(C)c1c(C(=O)Nc2ccccc2)c(-c2ccccc2)c(-c2ccc(F)cc2)n1CC[C@@H](O)C[C@@H](O)CC(=O)[O-] | 109 | 108 | 118 | 112 | 94.4 | 97.4 | 100 | 97.2 | 88.4 | 75.6 | 52.4 | 96.4 | 91.3 | 94.6 | 90.8 | 88.2 | 116 | 97.6 | 80.1 | 83.7 | 83.5 | 61.5 | 90.4 | 100 | 90.9 | 89.6 | 102 | 103 | 92.2 | 77.9 | 73.9 | 67.3 | 48.4
2 | O=C1N\C=N/C2=C1C=N[NH]2 | 89.6 | 88.4 | 96.1 | 97 | 97.5 | 86.8 | 97.1 | 103 | 101 | 67.1 | 30 | 77.9 | 87.3 | 83 | 95.4 | 94.9 | 81.7 | 86.5 | 93 | 94.3 | 91.5 | 81 | 71.6 | 78.3 | 69.5 | 84.8 | 70.8 | 91.3 | 83.2 | 88.6 | 89.1 | 81.2 | 71.9
3 | Cc1c(C(=O)c2cccc3ccccc23)c2cccc3c2n1[C@H](CN1CCOCC1)CO3 | 104 | 100 | 94.2 | 101 | 99.9 | 91 | 89.5 | 86.9 | 97.9 | 86.1 | 5.74 | 91.4 | 83.8 | 87.4 | 87.8 | 96.7 | 94.4 | 86.4 | 91 | 88.7 | 81.4 | 4.88 | 84.2 | 90 | 86.3 | 86.9 | 95.8 | 85.5 | 85.4 | 88.1 | 87.5 | 77.7 | 5.16
4 | CN1CCC(CC1)=C2C3=C(C=CC=C3)\C=C/C4=C2C=CC=C4 | 98.6 | 118 | 113 | 130 | 133 | 141 | 147 | 133 | 121 | 124 | 93.4 |  |  |  |  |  |  |  |  |  |  |  |  |  |  |  |  |  |  |  |  |  | 
5 | CCN(CC)CCCC(C)Nc1nc(C)cc(Nc2ccc3nc(C)cc(N)c3c2)n1 (stereo unspecified) | 79.6 | 105 | 124 | 125 | 108 | 125 | 119 | 129 | 102 | 111 | 114 | 96.3 | 111 | 110 | 113 | 123 | 116 | 124 | 110 | 120 | 108 | 111 | 106 | 108 | 114 | 111 | 122 | 115 | 120 | 107 | 115 | 94.6 | 103
6 | Cc1cnc(Nc2ccc(CN3CCOCC3)cc2)nc1Nc1cccc([S+](=O)([O-])NC(C)(C)C)c1 | 87.4 | 98.1 | 99.1 | 86.6 | 81.3 | 86.9 | 93.7 | 75.6 | 48.1 | 15.5 | 10.3 | 67.8 | 80 | 79.7 | 71.5 | 75.1 | 74.2 | 78.9 | 68 | 30.8 | 8.44 | 7.72 | 75.4 | 85.6 | 89.4 | 79.2 | 84.4 | 80.8 | 57.8 | 69.8 | 38.3 | 11.6 | 9.38
7 | C1CN\2C[C@@H](\N=C2S1)C3=CC=CC=C3 | 101 | 98.4 | 103 | 96.9 | 104 | 114 | 102 | 94.8 | 91.3 | 97.7 | 60.3 | 87.9 | 88.6 | 90.1 | 90.2 | 104 | 88.5 | 89.5 | 90.8 | 95.8 | 91 | 103 | 87.6 | 88.8 | 85.3 | 90.5 | 93.3 | 88.5 | 86.8 | 99.9 | 84 | 93 | 91.7
8 | COc1cc(Cl)cn2c(-c3cccc(NC4CNC4)n3)cnc12 | 123 | 115 | 118 | 142 | 152 | 148 | 141 | 150 | 129 | 129 | 111 |  |  |  |  |  |  |  |  |  |  |  |  |  |  |  |  |  |  |  |  |  | 
9 | Nc1ccc([S+](=O)([O-])Nc2ncccn2)cc1 | 115 | 121 | 130 | 126 | 136 | 127 | 129 | 138 | 142 | 129 | 120 |  |  |  |  |  |  |  |  |  |  |  |  |  |  |  |  |  |  |  |  |  | 
